Values joined by “and” are separate entries in the source; they are usually repeats but may differ in a detail not shown here. Equal entries are not always repeated. Inconclusive results and toxic doses are left out.
System: L1210 leukemia ip in BDF1 mice, survival T/C
Test: NCI In Vivo Anticancer Drug Screen. Data for tumor model L1210 Leukemia (intraperitoneal) in B6D2F1 (BDF1) mice
Conditions: higher = longer survival
How it was run: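 Tumor was transplanted into mice, which were then dosed with test compound or vehicle alone. Survival was recorded for each group, and the treated figure was expressed relative to the control figure.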

SMILES: COc1ccc2[nH]c3c(C)c4ccncc4c(C)c3c2c1
- T/C (endpoint: mean survival time, dose: 2.5 mg/kg/injection, schedule: Q01DX009 (ip), vehicle: Klucel (hydroxypropylcellulose) (HPC)): 93 % of control
- T/C (endpoint: mean survival time, dose: 3.12 mg/kg/injection, schedule: Q01DX009 (ip), vehicle: citric acid): 113 % of control and 124 % of control
- T/C (endpoint: mean survival time, dose: 3.12 mg/kg/injection, schedule: Q01DX009 (ip), vehicle: clinical formulation): 109 % of control and 121 % of control
- T/C (endpoint: mean survival time, dose: 3.12 mg/kg/injection, schedule: Q04DX003 (ip), vehicle: citric acid): 106 % of control
- T/C (endpoint: mean survival time, dose: 3.12 mg/kg/injection, schedule: Q04DX003 (ip), vehicle: clinical formulation): 104 % of control
- T/C (endpoint: mean survival time, dose: 5.0 mg/kg/injection, schedule: Q01DX009 (ip), vehicle: Klucel (hydroxypropylcellulose) (HPC)): 106 % of control
- T/C (endpoint: mean survival time, dose: 6.0 mg/kg/injection, schedule: Q01DX Z (ip), vehicle: saline): 112 % of control
- T/C (endpoint: mean survival time, dose: 6.25 mg/kg/injection, schedule: Q01DX009 (ip), vehicle: citric acid): 122 % of control
- T/C (endpoint: mean survival time, dose: 6.25 mg/kg/injection, schedule: Q04DX003 (ip), vehicle: citric acid): 109 % of control and 112 % of control
- T/C (endpoint: mean survival time, dose: 6.25 mg/kg/injection, schedule: Q04DX003 (ip), vehicle: clinical formulation): 106 % of control and 108 % of control
- T/C (endpoint: mean survival time, dose: 9.37 mg/kg/injection, schedule: Q01DX001 (ip), vehicle: other): 102 % of control
- T/C (endpoint: mean survival time, dose: 9.37 mg/kg/injection, schedule: Q01DX001 (sc), vehicle: other): 98 % of control
- T/C (endpoint: mean survival time, dose: 9.37 mg/kg/injection, schedule: Q04DX003 (ip), vehicle: other): 103 % of control
- T/C (endpoint: mean survival time, dose: 9.38 mg/kg/injection, schedule: Q04DX003 (ip), vehicle: clinical formulation): 104 % of control
- T/C (endpoint: mean survival time, dose: 9.38 mg/kg/injection, schedule: Q04DX003 (ip), vehicle: lactic acid): 121 % of control
- T/C (endpoint: mean survival time, dose: 10.0 mg/kg/injection, schedule: Q01DX009 (ip), vehicle: Klucel (hydroxypropylcellulose) (HPC)): 109 % of control
- T/C (endpoint: mean survival time, dose: 12.0 mg/kg/injection, schedule: Q01DX001 (ip), vehicle: saline): 106 % of control
- T/C (endpoint: mean survival time, dose: 12.0 mg/kg/injection, schedule: Q01DX Z (ip), vehicle: saline): 109 % of control and 123 % of control
- T/C (endpoint: mean survival time, dose: 12.0 mg/kg/injection, schedule: Q01DX Z (oral), vehicle: saline): 116 % of control
- T/C (endpoint: mean survival time, dose: 12.5 mg/kg/injection, schedule: Q01DX009 (ip), vehicle: citric acid): 150 % of control
- T/C (endpoint: mean survival time, dose: 12.5 mg/kg/injection, schedule: Q04DX003 (ip), vehicle: citric acid): 116 % of control
- T/C (endpoint: mean survival time, dose: 12.5 mg/kg/injection, schedule: Q04DX003 (ip), vehicle: clinical formulation): 117 % of control and 120 % of control
- T/C (endpoint: mean survival time, dose: 18.75 mg/kg/injection, schedule: Q01DX001 (ip), vehicle: other): 108 % of control and 109 % of control
- T/C (endpoint: mean survival time, dose: 18.75 mg/kg/injection, schedule: Q01DX001 (sc), vehicle: other): 104 % of control
- T/C (endpoint: mean survival time, dose: 18.75 mg/kg/injection, schedule: Q04DX003 (ip), vehicle: other): 118 % of control
- T/C (endpoint: mean survival time, dose: 20.0 mg/kg/injection, schedule: Q01DX009 (ip), vehicle: Klucel (hydroxypropylcellulose) (HPC)): 119 % of control
- T/C (endpoint: mean survival time, dose: 25.0 mg/kg/injection, schedule: Q01DX001 (ip), vehicle: saline): 104 % of control
- T/C (endpoint: mean survival time, dose: 25.0 mg/kg/injection, schedule: Q01DX009 (ip), vehicle: citric acid): 93 % of control
- T/C (endpoint: mean survival time, dose: 25.0 mg/kg/injection, schedule: Q01DX009 (ip), vehicle: clinical formulation): 101 % of control
- T/C (endpoint: mean survival time, dose: 37.5 mg/kg/injection, schedule: Q01DX001 (ip), vehicle: other): 114 % of control and 120 % of control
- T/C (endpoint: mean survival time, dose: 37.5 mg/kg/injection, schedule: Q01DX001 (ip), vehicle: saline): 104 % of control
- T/C (endpoint: mean survival time, dose: 37.5 mg/kg/injection, schedule: Q01DX001 (oral), vehicle: other): 118 % of control
- T/C (endpoint: mean survival time, dose: 37.5 mg/kg/injection, schedule: Q01DX001 (sc), vehicle: other): 113 % of control
- T/C (endpoint: mean survival time, dose: 37.5 mg/kg/injection, schedule: Q01DX001 (sc), vehicle: saline): 104 % of control
- T/C (endpoint: mean survival time, dose: 37.5 mg/kg/injection, schedule: Q04DX003 (oral), vehicle: other): 113 % of control
- T/C (endpoint: mean survival time, dose: 50.0 mg/kg/injection, schedule: Q01DX001 (ip), vehicle: other): 105 % of control
- T/C (endpoint: mean survival time, dose: 50.0 mg/kg/injection, schedule: Q01DX001 (ip), vehicle: saline): 98 % of control
- T/C (endpoint: mean survival time, dose: 50.0 mg/kg/injection, schedule: Q04DX003 (ip), vehicle: clinical formulation): 123 % of control
- T/C (endpoint: mean survival time, dose: 75.0 mg/kg/injection, schedule: Q01DX001 (ip), vehicle: saline): 111 % of control and 113 % of control and 115 % of control
- T/C (endpoint: mean survival time, dose: 75.0 mg/kg/injection, schedule: Q01DX001 (oral), vehicle: other): 124 % of control
- T/C (endpoint: mean survival time, dose: 75.0 mg/kg/injection, schedule: Q01DX001 (oral), vehicle: saline): 113 % of control
- T/C (endpoint: mean survival time, dose: 75.0 mg/kg/injection, schedule: Q01DX001 (sc), vehicle: other): 112 % of control
- T/C (endpoint: mean survival time, dose: 75.0 mg/kg/injection, schedule: Q01DX001 (sc), vehicle: saline): 100 % of control
- T/C (endpoint: mean survival time, dose: 100.0 mg/kg/injection, schedule: Q01DX Z (ip), vehicle: carboxymethylcellulose (CMC)): 96 % of control
- T/C (endpoint: mean survival time, dose: 100.0 mg/kg/injection, schedule: Q01DX Z (ip), vehicle: saline): 109 % of control
- T/C (endpoint: mean survival time, dose: 100.0 mg/kg/injection, schedule: Q04DX003 (ip), vehicle: citric acid): 110 % of control
- T/C (endpoint: mean survival time, dose: 100.0 mg/kg/injection, schedule: Q04DX003 (ip), vehicle: clinical formulation): 93 % of control and 103 % of control
- T/C (endpoint: mean survival time, dose: 115.0 mg/kg/injection, schedule: Q01DX001 (ip), vehicle: saline): 113 % of control
- T/C (endpoint: mean survival time, dose: 115.0 mg/kg/injection, schedule: Q01DX Z (oral), vehicle: saline): 95 % of control
- T/C (endpoint: mean survival time, dose: 150.0 mg/kg/injection, schedule: Q01DX001 (ip), vehicle: saline): 118 % of control
- T/C (endpoint: mean survival time, dose: 150.0 mg/kg/injection, schedule: Q01DX001 (sc), vehicle: other): 120 % of control
- T/C (endpoint: mean survival time, dose: 150.0 mg/kg/injection, schedule: Q01DX001 (sc), vehicle: saline): 107 % of control
- T/C (endpoint: mean survival time, dose: 170.0 mg/kg/injection, schedule: Q01DX001 (ip), vehicle: saline): 108 % of control
- T/C (endpoint: mean survival time, dose: 170.0 mg/kg/injection, schedule: Q01DX Z (ip), vehicle: saline): 104 % of control
- T/C (endpoint: mean survival time, dose: 225.0 mg/kg/injection, schedule: Q01DX001 (ip), vehicle: saline): 115 % of control
- T/C (endpoint: mean survival time, dose: 255.0 mg/kg/injection, schedule: Q01DX Z (ip), vehicle: saline): 96 % of control
- T/C (endpoint: mean survival time, dose: 255.0 mg/kg/injection, schedule: Q01DX Z (oral), vehicle: saline): 106 % of control
- T/C (endpoint: mean survival time, dose: 300.0 mg/kg/injection, schedule: Q01DX001 (ip), vehicle: saline): 122 % of control
- T/C (endpoint: mean survival time, dose: 300.0 mg/kg/injection, schedule: Q01DX001 (sc), vehicle: saline): 103 % of control
- T/C (endpoint: mean survival time, dose: 600.0 mg/kg/injection, schedule: Q01DX001 (oral), vehicle: other): 92 % of control
- T/C (endpoint: mean survival time, dose: 600.0 mg/kg/injection, schedule: Q01DX001 (sc), vehicle: saline): 111 % of control
- T/C (endpoint: mean survival time, dose: 1200.0 mg/kg/injection, schedule: Q01DX001 (oral), vehicle: saline): 104 % of control
- T/C (endpoint: median survival time, dose: 2.0 mg/kg/injection, schedule: Q03HX008 (oral), vehicle: other): 100 % of control
- T/C (endpoint: median survival time, dose: 2.0 mg/kg/injection, schedule: Q03HX008 (sc), vehicle: water): 100 % of control
- T/C (endpoint: median survival time, dose: 4.0 mg/kg/injection, schedule: Q01DX009 (ip), vehicle: other): 116 % of control
- T/C (endpoint: median survival time, dose: 4.0 mg/kg/injection, schedule: Q01DX009 (oral), vehicle: other): 111 % of control
- T/C (endpoint: median survival time, dose: 4.0 mg/kg/injection, schedule: Q01DX009 (sc), vehicle: water): 100 % of control
- T/C (endpoint: median survival time, dose: 4.0 mg/kg/injection, schedule: Q03HX008 (oral), vehicle: other): 111 % of control
- T/C (endpoint: median survival time, dose: 4.0 mg/kg/injection, schedule: Q03HX008 (sc), vehicle: water): 111 % of control
- T/C (endpoint: median survival time, dose: 8.0 mg/kg/injection, schedule: Q01DX009 (oral), vehicle: other): 111 % of control
- T/C (endpoint: median survival time, dose: 8.0 mg/kg/injection, schedule: Q01DX009 (sc), vehicle: water): 116 % of control
- T/C (endpoint: median survival time, dose: 8.0 mg/kg/injection, schedule: Q03HX008 (oral), vehicle: other): 94 % of control
- T/C (endpoint: median survival time, dose: 8.0 mg/kg/injection, schedule: Q03HX008 (sc), vehicle: water): 122 % of control
- T/C (endpoint: median survival time, dose: 16.0 mg/kg/injection, schedule: Q01DX001 (oral), vehicle: other): 100 % of control
- T/C (endpoint: median survival time, dose: 16.0 mg/kg/injection, schedule: Q01DX001 (sc), vehicle: water): 111 % of control
- T/C (endpoint: median survival time, dose: 16.0 mg/kg/injection, schedule: Q01DX009 (ip), vehicle: water): 111 % of control
- T/C (endpoint: median survival time, dose: 16.0 mg/kg/injection, schedule: Q01DX009 (oral), vehicle: other): 122 % of control
- T/C (endpoint: median survival time, dose: 16.0 mg/kg/injection, schedule: Q03HX008 (oral), vehicle: other): 116 % of control
- T/C (endpoint: median survival time, dose: 32.0 mg/kg/injection, schedule: Q01DX001 (oral), vehicle: other): 111 % of control
- T/C (endpoint: median survival time, dose: 32.0 mg/kg/injection, schedule: Q01DX009 (ip), vehicle: other): 100 % of control
- T/C (endpoint: median survival time, dose: 32.0 mg/kg/injection, schedule: Q01DX009 (ip), vehicle: water): 100 % of control
- T/C (endpoint: median survival time, dose: 32.0 mg/kg/injection, schedule: Q01DX009 (oral), vehicle: other): 105 % of control
- T/C (endpoint: median survival time, dose: 32.0 mg/kg/injection, schedule: Q03HX008 (sc), vehicle: water): 150 % of control
- T/C (endpoint: median survival time, dose: 64.0 mg/kg/injection, schedule: Q01DX001 (oral), vehicle: other): 111 % of control
- T/C (endpoint: median survival time, dose: 64.0 mg/kg/injection, schedule: Q01DX001 (sc), vehicle: water): 111 % of control
- T/C (endpoint: median survival time, dose: 64.0 mg/kg/injection, schedule: Q01DX009 (sc), vehicle: water): 116 % of control
- T/C (endpoint: median survival time, dose: 128.0 mg/kg/injection, schedule: Q01DX001 (oral), vehicle: other): 122 % of control
- T/C (endpoint: median survival time, dose: 128.0 mg/kg/injection, schedule: Q01DX009 (oral), vehicle: other): 111 % of control
- T/C (endpoint: median survival time, dose: 256.0 mg/kg/injection, schedule: Q01DX001 (sc), vehicle: water): 122 % of control

From PubChem BioAssay AID248 (DTP/NCI, 2004)
